Results published in patent publication US9624209B2, “Substituted phenylureas and phenylamides as vanilloid receptor ligands” (Gruenenthal GmbH, priority 2009, dated 2017).

Target: T1, vanilloid receptor 1 (VR1/TRPV1 receptor) (Homo sapiens, UniProt Q8NER1)
T1 construct: expressed in transfected cells; host or cells: CHO K1 cells (ECACC), stably transfected
Assay: VR1/TRPV1 receptor affinity, capsaicin stimulus (human)
Type: cell-based, human being
Design: key to (f) Ki (human being) [nM] Cap: result in words: AG=agonist; pAG=partial agonist; NE=no effect
Conditions: for Ki: Tables 8-12, read-out: (f) Ki (human being) [nM] Cap

T1 sequence (Q8NER1 whole entry): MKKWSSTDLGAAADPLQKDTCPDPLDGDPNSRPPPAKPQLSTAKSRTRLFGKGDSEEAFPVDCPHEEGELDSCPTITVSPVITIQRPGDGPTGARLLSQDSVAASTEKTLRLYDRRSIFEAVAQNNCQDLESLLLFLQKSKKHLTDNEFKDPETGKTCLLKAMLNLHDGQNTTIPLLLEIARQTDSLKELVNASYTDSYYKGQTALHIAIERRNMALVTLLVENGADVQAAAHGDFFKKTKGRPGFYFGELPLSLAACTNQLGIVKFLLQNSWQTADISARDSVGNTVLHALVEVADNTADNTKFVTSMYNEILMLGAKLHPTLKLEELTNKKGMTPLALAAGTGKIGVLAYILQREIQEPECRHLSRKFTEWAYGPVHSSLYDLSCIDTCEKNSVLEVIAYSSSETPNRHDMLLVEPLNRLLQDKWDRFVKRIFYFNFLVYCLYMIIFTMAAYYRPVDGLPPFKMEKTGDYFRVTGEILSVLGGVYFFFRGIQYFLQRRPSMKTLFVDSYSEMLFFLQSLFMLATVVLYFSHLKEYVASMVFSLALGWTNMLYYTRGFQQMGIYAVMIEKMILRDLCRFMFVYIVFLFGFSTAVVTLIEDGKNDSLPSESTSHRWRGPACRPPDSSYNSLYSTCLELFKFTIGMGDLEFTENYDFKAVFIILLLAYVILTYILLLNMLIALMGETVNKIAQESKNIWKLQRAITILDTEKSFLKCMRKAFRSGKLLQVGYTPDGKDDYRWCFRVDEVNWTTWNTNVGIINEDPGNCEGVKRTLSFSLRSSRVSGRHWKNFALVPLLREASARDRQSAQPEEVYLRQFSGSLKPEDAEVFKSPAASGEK

## CS(=O)(=O)NCc1ccc(NC(=O)NCc2cc(C(F)(F)F)nn2-c2ccc(F)c(F)c2)cc1F [Example B49, 1-[[2-(3,4-Difluoro-phenyl)-5-(trifluoromethyl)-2H-pyrazol-3-yl]-methyl]-3-[3-fluoro-4-(methanesulfonamido-methyl)-phenyl]-urea]
  Ki: 11 nM

## CC(C)(C)c1cc(CNC(=O)Nc2ccc(CNS(C)(=O)=O)c(F)c2)n(-c2cccc(F)c2)n1 [Example B50, 1-[[5-tert-Butyl-2-(3-fluorophenyl)-2H-pyrazol-3-yl]-methyl]-3-[3-fluoro-4-(methanesulfonamido-methyl)-phenyl]-urea]
  Ki: 15 nM

## CC(C)(C)c1cc(CNC(=O)Nc2ccc(CNS(C)(=O)=O)c(F)c2)n(-c2ccc(F)c(Cl)c2)n1 [Example B51, 1-[[5-tert-Butyl-2-(3-chloro-4-fluoro-phenyl)-2H-pyrazol-3-yl]-methyl]-3-[3-fluoro-4-(methanesulfonamido-methyl)-phenyl]-urea]
  Ki: 15 nM

## CS(=O)(=O)NCc1ccc(NC(=O)NCc2cc(C(F)(F)F)nn2-c2cccc(Cl)c2)cc1F [Example B52, 1-[[2-(3-Chlorophenyl)-5-(trifluoromethyl)-2H-pyrazol-3-yl]-methyl]-3-[3-fluoro-4-(methanesulfonamido-methyl)-phenyl]-urea]
  Ki: 9 nM

## CC(C)(C)c1cc(CNC(=O)Nc2ccc(CNS(C)(=O)=O)c(F)c2)n(-c2ccc(F)cc2)n1 [Example B53, 1-[[5-tert-Butyl-2-(4-fluorophenyl)-2H-pyrazol-3-yl]-methyl]-3-[3-fluoro-4-(methanesulfonamido-methyl)-phenyl]-urea]
  Ki: 33 nM

## CC(C)(C)c1cc(CNC(=O)Nc2ccc(CNS(C)(=O)=O)c(F)c2)n(-c2cccc(C(F)(F)F)c2)n1 [Example B54, 1-[[5-tert-Butyl-2-[3-(trifluoromethyl)phenyl]-2H-pyrazol-3-yl]-methyl]-3-[3-fluoro-4-(methanesulfonamido-methyl)-phenyl]-urea]
  Ki: 8 nM

## CS(=O)(=O)NCc1ccc(NC(=O)NCc2cc(C(F)(F)F)nn2-c2cccc(C(F)(F)F)c2)cc1F [Example B55, 1-[3-Fluoro-4-(methanesulfonamido-methyl)-phenyl]-3-[[5-(trifluoromethyl)-2-[3-(trifluoromethyl)phenyl]-2H-pyrazol-3-yl]-methyl]-urea]
  Ki: 27 nM

## CC(C)(C)c1cc(CNC(=O)Nc2ccc(CNS(N)(=O)=O)cc2)n(-c2cccc(F)c2)n1 [Example B56, 1-[[5-tert-Butyl-2-(3-fluorophenyl)-2H-pyrazol-3-yl]-methyl]-3-[4-[(sulfamoylamino)-methyl]-phenyl]-urea]
  Ki: 56 nM

## NS(=O)(=O)NCc1ccc(NC(=O)NCc2cc(C(F)(F)F)nn2-c2ccc(F)c(F)c2)cc1 [Example B57, 1-[[2-(3,4-Difluoro-phenyl)-5-(trifluoromethyl)-2H-pyrazol-3-yl]-methyl]-3-[4-[(sulfamoylamino)-methyl]-phenyl]-urea]
  Ki: 58 nM

## COc1cccc(-n2nc(C(F)(F)F)cc2CNC(=O)Nc2ccc(CNS(C)(=O)=O)c(F)c2)c1 [Example B58, 1-[3-Fluoro-4-(methanesulfonamido-methyl)-phenyl]-3-[[2-(3-methoxyphenyl)-5-(trifluoromethyl)-2H-pyrazol-3-yl]-methyl]-urea]
  Ki: 16 nM

## CC(C)(C)c1cc(CNC(=O)Nc2ccc(CNS(N)(=O)=O)c(F)c2)n(-c2cccc(F)c2)n1 [Example B59, 1-[[5-tert-Butyl-2-(3-fluorophenyl)-2H-pyrazol-3-yl]-methyl]-3-[3-fluoro-4-[(sulfamoylamino)-methyl]-phenyl]-urea]
  Ki: 16 nM

## NS(=O)(=O)NCc1ccc(NC(=O)NCc2cc(C(F)(F)F)nn2-c2cccc(F)c2)cc1F [Example B60, 1-[[2-(3-Fluorophenyl)-5-(trifluoromethyl)-2H-pyrazol-3-yl]-methyl]-3-[3-fluoro-4-[(sulfamoylamino)-methyl]-phenyl]-urea]
  Ki: 25 nM

## NS(=O)(=O)NCc1ccc(NC(=O)NCc2cc(C3CC3)nn2-c2cccc(Cl)c2)cc1F [Example B61, 1-[[2-(3-Chlorophenyl)-5-cyclopropyl-2H-pyrazol-3-yl]-methyl]-3-[3-fluoro-4-[(sulfamoylamino)-methyl]-phenyl]-urea]
  Ki: 8 nM

## NS(=O)(=O)NCc1ccc(NC(=O)NCc2cc(C(F)(F)F)nn2-c2ccc(F)c(F)c2)cc1F [Example B62, 1-[[2-(3,4-Difluoro-phenyl)-5-(trifluoromethyl)-2H-pyrazol-3-yl]-methyl]-3-[3-fluoro-4-[(sulfamoylamino)-methyl]-phenyl]-urea]
  Ki: 36 nM

## CNCc1ccc(C(C)C(=O)NCc2cc(C(C)(C)C)nn2-c2cccc(Cl)c2)cc1F (stereo not drawn) [Example B63, N-[[5-tert-Butyl-2-(3-chlorophenyl)-2H-pyrazol-3-yl]-methyl]-2-[3-fluoro-4-(methylamino-methyl)-phenyl]-propionamide]
  Ki: 30 nM

## CC(C(=O)NCc1cc(C(C)(C)C)nn1-c1cccc(Cl)c1)c1ccc(CN(C)C)c(F)c1 (stereo not drawn) [Example B64, N-[[5-tert-Butyl-2-(3-chlorophenyl)-2H-pyrazol-3-yl]-methyl]-2-[4-(dimethylaminomethyl)-3-fluoro-phenyl]-propionamide]
  Ki: 45 nM

## CC(C(=O)NCc1cc(C(F)(F)F)nn1-c1cccc(Cl)c1)c1ccc(CN(C)C)c(F)c1 (stereo not drawn) [Example B65, N-[[2-(3-Chlorophenyl)-5-(trifluoromethyl)-2H-pyrazol-3-yl]-methyl]-2-[4-(dimethylaminomethyl)-3-fluoro-phenyl]-propionamide]
@ 5 μM, Tables 8-12, read-out: (f) Ki (human being) [nM] Cap: inhibition (as a percentage)
  inhibition at 5 µM: 36%

## CC(=O)NCc1ccc(C(C)C(=O)NCc2cc(C(F)(F)F)nn2-c2cccc(Cl)c2)cc1F (stereo not drawn) [Example B66, 2-[4-(Acetylamino-methyl)-3-fluoro-phenyl]-N-[[2-(3-chlorophenyl)-5-(trifluoromethyl)-2H-pyrazol-3-yl]-methyl]-propionamide]
  Ki: 29 nM

## CC(=O)NCc1ccc(C(C)C(=O)NCc2cc(C(C)(C)C)nn2-c2cccc(Cl)c2)cc1F (stereo not drawn) [Example B67, 2-[4-(Acetylamino-methyl)-3-fluoro-phenyl]-N-[[5-tert-butyl-2-(3-chlorophenyl)-2H-pyrazol-3-yl]-methyl]-propionamide]
Tables 8-12
  (f) Ki (human being) [nM] Cap: result in words: AG

## Cc1cccc(-n2nc(C(F)(F)F)cc2CNC(=O)C(C)c2ccc(CNS(C)(=O)=O)c(F)c2)c1 (stereo not drawn) [Example B68, 2-[3-Fluoro-4-(methanesulfonamido-methyl)-phenyl]-N-[[2-(m-tolyl)-5-(trifluoromethyl)-2H-pyrazol-3-yl]-methyl]-propionamide]
  Ki: 4 nM

## CC(C)(C)c1cc(CNC(=O)Nc2ccc(CNS(N)(=O)=O)c(F)c2)n(-c2ccc(F)c(F)c2)n1 [Example B69, 1-[[5-tert-Butyl-2-(3,4-difluoro-phenyl)-2H-pyrazol-3-yl]-methyl]-3-[3-fluoro-4-[(sulfamoylamino)-methyl]-phenyl]-urea]
  Ki: 30 nM

## NS(=O)(=O)NCc1ccc(NC(=O)NCc2cc(C(F)(F)F)nn2-c2ccc(F)c(Cl)c2)cc1F [Example B70, 1-[[2-(3-Chloro-4-fluoro-phenyl)-5-(trifluoromethyl)-2H-pyrazol-3-yl]-methyl]-3-[3-fluoro-4-[(sulfamoylamino)-methyl]-phenyl]-urea]
  Ki: 14 nM

## COc1cccc(-n2nc(C(F)(F)F)cc2CNC(=O)Nc2ccc(CNS(N)(=O)=O)c(F)c2)c1 [Example B71, 1-[3-Fluoro-4-[(sulfamoylamino)-methyl]-phenyl]-3-[[2-(3-methoxyphenyl)-5-(trifluoromethyl)-2H-pyrazol-3-yl]-methyl]-urea]
  Ki: 41 nM

## CC(C)(C)c1cc(CNC(=O)Nc2ccc(CNS(C)(=O)=O)c(F)c2)n(-c2ccc(F)c(F)c2)n1 [Example B72, 1-[[5-tert-Butyl-2-(3,4-difluoro-phenyl)-2H-pyrazol-3-yl]-methyl]-3-[3-fluoro-4-(methanesulfonamido-methyl)-phenyl]-urea]
  Ki: 13 nM

## CC(C)c1cccc(-n2nc(C(F)(F)F)cc2CNC(=O)Nc2ccc(CNS(C)(=O)=O)c(F)c2)c1 [Example B73, 1-[3-Fluoro-4-(methanesulfonamido-methyl)-phenyl]-3-[[2-(3-isopropyl-phenyl)-5-(trifluoromethyl)-2H-pyrazol-3-yl]-methyl]-urea]
  Ki: 3 nM

## CC(C)(C)c1cc(CNC(=O)Nc2ccc(CNS(N)(=O)=O)cc2)n(-c2ccc(F)c(F)c2)n1 [Example B74, 1-[[5-tert-Butyl-2-(3,4-difluoro-phenyl)-2H-pyrazol-3-yl]-methyl]-3-[4-[(sulfamoylamino)-methyl]-phenyl]-urea]
  Ki: 37 nM

## NS(=O)(=O)NCc1ccc(NC(=O)NCc2cc(C3CC3)nn2-c2cccc(Cl)c2)cc1 [Example B75, 1-[[2-(3-Chlorophenyl)-5-cyclopropyl-2H-pyrazol-3-yl]-methyl]-3-[4-[(sulfamoylamino)-methyl]-phenyl]-urea]
  Ki: 19 nM

## COc1cc(C(C)C(=O)NCc2cc(C(F)(F)F)nn2-c2cccc(Cl)c2)ccc1CNS(C)(=O)=O (stereo not drawn) [Example B76, N-[[2-(3-Chlorophenyl)-5-(trifluoromethyl)-2H-pyrazol-3-yl]-methyl]-2-[4-(methanesulfonamido-methyl)-3-methoxy-phenyl]-propionamide]
  Ki: 12 nM

## NS(=O)(=O)NCc1ccc(NC(=O)NCc2cc(C(F)(F)F)nn2-c2cccc(F)c2)cc1 [Example B77, 1-[[2-(3-Fluorophenyl)-5-(trifluoromethyl)-2H-pyrazol-3-yl]-methyl]-3-[4-[(sulfamoylamino)-methyl]-phenyl]-urea]
  Ki: 44 nM

## NS(=O)(=O)NCc1ccc(NC(=O)NCc2cc(C(F)(F)F)nn2-c2ccc(F)c(Cl)c2)cc1 [Example B78, 1-[[2-(3-Chloro-4-fluoro-phenyl)-5-(trifluoromethyl)-2H-pyrazol-3-yl]-methyl]-3-[4-[(sulfamoylamino)-methyl]-phenyl]-urea]
  Ki: 21 nM
